Results published in patent US6635459B1, “Nucleotide sequences encoding pinoresinol/lariciresinol reductase proteins and their methods of use” (Washington State University Research Foundation, priority 1996, dated 2003).

Tests used:
[1] = molecular target: T1, 35 kDa form of (+)-pinoresinol/(+)-lariciresinol reductase (Forsythia intermedia, UniProt P93143); assay: Initial velocity studies, reductase 35 kDa isoform; assay type: biochemical; details: 35 kDa form of the enzyme; NADPH 80 μM, pH 7.4, 30° C.
T1 construct: pure enzyme (after MonoQ anion-exchange chromatography); from tissue; host or cells: Forsythia intermedia stems
T1 sequence (P93143 2-312): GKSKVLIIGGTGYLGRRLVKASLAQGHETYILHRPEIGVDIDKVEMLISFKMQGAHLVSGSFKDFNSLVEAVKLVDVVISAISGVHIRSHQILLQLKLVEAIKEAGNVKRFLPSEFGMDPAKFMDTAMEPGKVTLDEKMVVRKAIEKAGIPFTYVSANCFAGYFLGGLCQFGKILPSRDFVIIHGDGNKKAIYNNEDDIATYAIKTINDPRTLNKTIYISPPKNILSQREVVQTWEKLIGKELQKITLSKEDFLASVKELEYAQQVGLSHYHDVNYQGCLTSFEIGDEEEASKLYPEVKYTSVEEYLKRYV
Description: (§1) Kinetic Parameters. […] The initial velocity studies were carried out individually utilizing the two isoforms of the enzyme, and individually employing both (+)-pinoresinol and (+)-lariciresinol as substrates. Initial velocity studies were performed in triplicate experiments, using 50 mM Bis-Tris Propane buffer, pH 7.4 containing 5 mM dithiothreitol, pure enzyme (after MonoQ anion-exchange chromatography), ten different substrate concentrations (between 8.8 and 160 μM) at a constant NADPH concentration (80 μM). Incubations were carried out at 30° C. for 10 min (within the linear kinetic range). Kinetic parameters were determined from Lineweaver-Burk plots.

[2] = molecular target: 36 kDa form of (+)-pinoresinol/(+)-lariciresinol reductase (Forsythia x intermedia, UniProt P93143); assay: Initial velocity studies, reductase 36 kDa isoform; details: 36 kDa form of the enzyme; NADPH 80 μM, pH 7.4, 30° C.
Description: as §1

[3] = system: cAMP-phosphodiesterase; details: cited from earlier work
[4] = system: HW-1; details: cited from earlier work
[5] = system: HIV; details: cited from earlier work
[6] = system: (±)-pinoresinols; assay: Substrate specificity of recombinant Thuja plicata reductases expressed in E. coli; assay type: biochemical; details: β-galactosidase fusion in E. coli total protein extract, 3 hour incubation at 30° C.

For (+)-pinoresinol, which Km [1] is on record?
Its Km is 27 ± 1.5 µM.

What about the “Vmax (apparent maximum velocity)” value [1] of the same molecule?
The value was 16.2±0.4 μmol h^−1 mg^−1 of protein.

What about the Km [2] of the same molecule?
Its Km is 23 ± 1.3 µM.

What about the “Vmax (apparent maximum velocity)” value [2] of the same molecule?
Its value is 17.3±0.5 μmol h^−1 mg^−1 of protein.

Which cAMP-phosphodiesterase inhibition [3] does the source give for `COc1cc(C[C@H]2COC(=O)[C@@H]2Cc2ccc(O)c(OC)c2)ccc1O` [matairesinol] here?
The cAMP-phosphodiesterase inhibition was “inhibit cAMP-phosphodiesterase”.

For (−)-trachelogenin, which “inhibition of in vitro replication of HW-1” value [4] is on record?
Its value is “inhibits”.

What about the “effectiveness against HIV (reverse transcriptase inhibitory activities)” value [5] of the same molecule?
The value was “effective against HIV”.

For `COc1cc(C[C@]2(O)C(=O)OC[C@H]2Cc2ccc(OC)c(OC)c2)ccc1O` (single isomer, unassigned) [(+)-enantiomer], which “inhibition of in vitro replication of HW-1” value [4] is on record?
Its value is “much less effective”.

B1: plr-Tp2: Thuja plicata (+)-pinoresinol/(+)-lariciresinol reductase (SEQ ID NO:64) expressed in E. coli (protein)
chain: MEESSRVLIVGGTGYIGRRIVKASIALGHPTFILFRKEVVSDVEKVEMLLSFKKNGAKLLEASFDDHESLVDAVKQVDVVISAVAGNHMRHHILQQLKLVEAIKEAGNIKRFVPSEFGMDPGLMEHAMAPGNIVFIDKIKVREAIEAASIPHTYISANIFAGYLVGGLAQLGRVMPPSEKVILYGDGNVKAVWVDEDDVGIYTIKAIDDPHTLNKTMYIRPPLNILSQKEVVEKWEKLSGKSLNKINISVEDFLAGMEGQSYGEQIGISHFYQMFYRGDLYNFEIGPNGVEASQLYPEVKYTTVDSYMERYL
Which substrate specificity [6] does the source give for B1 here?
Its substrate specificity is “same substrate specificity and product formation as the original Forsythia intermedia reductase”.

B2: plr-Tp1: Thuja plicata (−)-pinoresinol/(−)-lariciresinol reductase (SEQ ID NO:62) expressed in E. coli (protein)
chain: MDKKSRVLIVGGTGYIGKRIVNASISLGHPTYVLFRPEVVSNIDKVQMLLYFKQLGAKLIEASLDDHQRLVDALKQVDVVISALAGGVLSHHILEQLKLVEAIKEAGNIKRFLPSEFGMDPDIMEHALQPGSITFIDKRKVRRAIEAASIPYTYVSSNMFAGYFAGSLAQLDGHMMPPRDKVLIYGDGNVKGIWVDEDDVGTYTIKSIDDPQTLNKTMYIRPPMNILSQKEVIQIWERLSEQNLDKIYISSQDFLADMKDKSYEEKIVRCHLYQIFFRGDLYNFEIGPNAIEATKLYPEVKYVTMDSYLERYV
For B2, which substrate specificity [6] is on record?
The substrate specificity was “can use both (−)-pinoresinol and (+)-pinoresinol as substrates”.
